One data set has as its target Human CYP2C8 (Homo sapiens (Human), UniProt P10632). As to the kind of experiment: Inhibitory action on human CYP2C8. Type of data set: in vitro ADME. On the procedure:
(§1) Measurement of the Inhibitory Activity on Drug-Metabolizing Enzymes (Inhibitory Action on Human CYP2C8 and Human CYP2C19)
The reaction was carried out in a 96-well plate. […] 100 μL of this reaction mixture and 50 μL of the test compound prepared as described above and the positive control solution prepared as described above were dispensed into each well and pre-incubation was carried out at 10 minutes for 37° C. The reaction was started by the addition of 50 μL NADPH solution (final concentration=1 mmol/L) and incubation was carried out for 30 minutes at 37° C.

For another data set, the target named is Human CYP2C19 (Homo sapiens (Human), UniProt P33261). The data set is described as follows: Inhibitory action on human CYP2C19. Type of data set: in vitro ADME. As for the experimental part:
as §1
The reaction was carried out in a 96-well plate. The positive control substances (CYP2C8: ketoconazole, CYP2C19: tranylcypromine) were adjusted (CYP2C8: 0.6 and 6 mmol/L, CYP2C19: 0.9 and 9 mmol/L) with DMSO to concentrations that were 300 times the final concentration, and solutions were prepared (CYP2C8: 8 and 80 μmol/L, CYP2C19: 12 and 120 μmol/L) by 75× dilution with purified water that contained 2.7% acetonitrile. The test compounds were adjusted to […] with DMSO and were adjusted to 4 and 40 μmol/L by 75× dilution with purified water that contained 2.7% acetonitrile. A reaction mixture was then prepared (the numerical values are final concentrations) by the addition of potassium phosphate buffer (pH 7.4), magnesium chloride ([…]), substrate (CYP2C8: dibenzylfluorescein 1 μmol/L, CYP2C19: 3-cyano-7-ethoxycoumarin 25 μmol/L), and E. coli-expressed liver microsome CYP2C8 (Cypex, 10 pmol/L) and CYP2C19 (Cypex, 3 pmol/L). 100 μL of this reaction mixture and 50 μL of the test compound prepared as described above and the positive control solution prepared as described above were dispensed into each well and pre-incubation was carried out at 10 minutes for 37° C. The reaction was started by the addition of 50 μL NADPH solution (final concentration=1 mmol/L) and incubation was carried out for 30 minutes at 37° C. The fluorescence intensity was measured (CYP2C8: excitation wavelength=485 nm, fluorescence wavelength=538 nm; CYP2C19: excitation wavelength=409 nm, fluorescence wavelength=460 nm) immediately after the addition of the NADPH and after incubation for 30 minutes.

The subject of data set [1] is Human liver cells. The data set is described as follows: Ability to reduce the mitochondrial membrane potential in cultured human hepatoma cells (JC-1). The data set is classed as cell-based. The note with it: JC-1, exposure for 24 hours, read-out: Ability to lower the mitochondrial membrane potential (IC50 (μM)). The source says: (§2) Measurement of the Cytotoxicity and Ability to Reduce the Mitochondrial Membrane Potential in Cultured Human Hepatoma Cells
Tissue that maintains an aerobic equilibrium, e.g., the kidneys and heart, and tissue that is exposed to high drug concentrations and carries out drug metabolism, e.g., the liver, are known to be sensitive to mitochondrial dysfunction (Drug Discovery Today, 12 (17-18), 777-785, 2007). The reduction or extinction of the mitochondrial membrane potential by a drug is caused by the direct inhibition of the electron transport system, decoupling of electron transport from ATP synthase, or the opening of a mitochondrial membrane permeability transition pore. As a consequence, measurement of the mitochondrial membrane potential of liver cells can provide a parameter for hepatotoxicity.
(§3) Human liver cells were seeded into a collagen-coated 96-well plate at a cell density of 30,000 cells/well and incubation was carried out overnight in an incubator at 37° C. in 5% CO2-95% air. The cultured cells were stained for 1 hour with 5,5′,6,6′-tetrahydro-1,1′,3,3′-tetramethyl-benzamidazolocarbocyanine iodide (JC-1) followed by treatment with the test compound. The test compound was dissolved in DMSO and then diluted with the liquid culture medium Hepatocyte Culture Medium (HCM) and added to the cells. The test compound treatment concentrations were 0, 6.25, 12.5, 25, 50, 100, 200, and 400 μmol/L. After exposure to the test compound for 24 hours, measurement was performed with a SpectraMax plate reader (Molecular Devices, LLC) at an excitation wavelength of 485 nm and a fluorescence wavelength of 538 nm and an excitation wavelength of 544 nm and a fluorescence wavelength of 590 nm. The membrane potential was determined by the ratio between the 544 nm/590 nm measurement value and the 485 nm/538 nm measurement value. After this, the ATP concentration in the cells was measured using a Celltiter Glo luminescent assay kit (Promega Corporation) in order to evaluate the cell toxicity of the test compound. The cells were lysed by the assay buffer provided with the measurement kit and the concentration of the ATP released from the cells was measured using the luciferin-luciferase enzyme activity as the index. The emission was measured using a SpectraMax plate reader. […] The ability to lower the mitochondrial membrane potential of the test compounds and the cytotoxicity of the test compounds are given in Table 3 below.

Data set [2] deals with Human liver cells. The data set is described as follows: Cytotoxicity in cultured human hepatoma cells (ATP concentration, Celltiter Glo). Conditions: 50% decline in ATP concentration, exposure for 24 hours, read-out: Toxicity for human liver cells (IC50 (μM)). The data set is classed as cell-based. On the procedure: as §2, §3
Data set [3] in a line: Stability in the rat liver microsome. Conditions: 0.5 mg/mL microsomes, NADPH, 15 minutes at 37° C.
Method: (§4) Evaluation of the Stability in the Rat and Human Liver Microsome
(§5) A 0.25 mmol/L solution was prepared by diluting the test compound (10 mmol/L DMSO solution, 5 μL) with an aqueous 50% acetonitrile solution (195 μL).
(§6) 20 μL was collected immediately after the start and the reaction was stopped by the addition to 180 μL of acetonitrile that contained an internal standard (warfarin). 20 μL of this solution was stirred with 180 μL of an aqueous 50% acetonitrile solution on a filter plate for protein depletion followed by suction filtration, and the filtrate was used as the standard sample.
(§7) The previously indicated reaction solution was incubated for 15 minutes at 37° C., and 20 μL was then added to 180 μL cold acetonitrile (contained the internal standard warfarin) to stop the reaction. 20 μL of this was stirred with 180 μL of an aqueous 50% acetonitrile solution on a filter plate for protein depletion followed by suction filtration, and the filtrate was used as the standard sample.
Data set [4] in a line: Stability in the human liver microsome. The note with it: 0.5 mg/mL microsomes, NADPH, 15 minutes at 37° C. (In general: Liver microsomes are a subcellular fraction often used to study metabolism.)
Method: as §4, §5, §6, §7

The structures appear in SMILES notation.

As usually defined, the IC50 is the concentration that gives 50% inhibition.

Human CYP2C19, sequence (P33261 whole entry): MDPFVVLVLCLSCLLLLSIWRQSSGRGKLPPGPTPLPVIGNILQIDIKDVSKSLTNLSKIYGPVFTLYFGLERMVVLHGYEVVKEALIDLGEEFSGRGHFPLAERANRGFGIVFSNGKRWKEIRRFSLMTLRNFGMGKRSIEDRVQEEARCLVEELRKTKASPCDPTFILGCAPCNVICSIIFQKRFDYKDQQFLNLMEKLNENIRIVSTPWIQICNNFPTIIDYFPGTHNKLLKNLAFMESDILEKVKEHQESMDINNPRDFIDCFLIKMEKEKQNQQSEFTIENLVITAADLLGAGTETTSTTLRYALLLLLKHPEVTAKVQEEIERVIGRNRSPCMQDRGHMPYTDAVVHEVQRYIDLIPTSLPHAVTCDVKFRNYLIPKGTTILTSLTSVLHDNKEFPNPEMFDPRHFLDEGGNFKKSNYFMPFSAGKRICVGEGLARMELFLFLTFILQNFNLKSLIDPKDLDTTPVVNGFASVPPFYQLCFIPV
Human CYP2C8, sequence (P10632 whole entry): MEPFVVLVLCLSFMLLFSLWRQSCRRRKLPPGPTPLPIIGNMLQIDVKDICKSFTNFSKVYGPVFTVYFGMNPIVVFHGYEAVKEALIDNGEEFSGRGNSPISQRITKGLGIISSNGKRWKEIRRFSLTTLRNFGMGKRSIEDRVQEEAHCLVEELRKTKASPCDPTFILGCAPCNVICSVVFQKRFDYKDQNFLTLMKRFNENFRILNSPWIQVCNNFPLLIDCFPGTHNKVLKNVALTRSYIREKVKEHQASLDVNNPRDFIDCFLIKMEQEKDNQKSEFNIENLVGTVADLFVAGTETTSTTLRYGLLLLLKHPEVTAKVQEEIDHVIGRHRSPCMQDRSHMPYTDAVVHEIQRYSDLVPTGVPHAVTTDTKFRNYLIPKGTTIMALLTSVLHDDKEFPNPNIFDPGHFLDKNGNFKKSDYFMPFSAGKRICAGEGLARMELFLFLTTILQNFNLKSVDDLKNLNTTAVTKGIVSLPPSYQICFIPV

Take `C#CC(=O)N1CCC(n2nc(-c3ccc(Oc4ccccc4)cc3)c3c(N)ncnc32)C1` (stereo not drawn) [Comparative compound B, reference compound]: the IC50 is 6.9 µM at Human CYP2C8, 8.1 µM on Human CYP2C19, < 6.25 µM in the data set with Human liver cells [1] and < 6.25 µM in the data set on Human liver cells [2]. The “Residual ratio (%) in the rat liver microsome” value in data set [3] is on record as 50.6%. For the same compound, in data set [4], the “Residual ratio (%) in the human liver microsome” value is given as 55.9%.

The record behind these values is patent US9879013B2, “Purinone derivative” (ONO PHARMACEUTICAL CO., LTD., priority 2010, dated 2018).
